Laboratory results as given in patent publication US11780821B2, “Inhibitors of fibroblast activation protein” (Praxis Biotech LLC, priority 2017, dated 2023).

Tests used:
plasma FAP activity = molecular target: T1, plasma FAP activity (Rattus norvegicus, UniProt A0A9K3Y732); test: rhFGF21 administration in conjunction with FAP inhibition in vivo; parameters: species or system Sprague Dawley rats
T1 construct: from tissue; host or cells: rat plasma after oral dosing
T1 sequence (A0A9K3Y732 1-761): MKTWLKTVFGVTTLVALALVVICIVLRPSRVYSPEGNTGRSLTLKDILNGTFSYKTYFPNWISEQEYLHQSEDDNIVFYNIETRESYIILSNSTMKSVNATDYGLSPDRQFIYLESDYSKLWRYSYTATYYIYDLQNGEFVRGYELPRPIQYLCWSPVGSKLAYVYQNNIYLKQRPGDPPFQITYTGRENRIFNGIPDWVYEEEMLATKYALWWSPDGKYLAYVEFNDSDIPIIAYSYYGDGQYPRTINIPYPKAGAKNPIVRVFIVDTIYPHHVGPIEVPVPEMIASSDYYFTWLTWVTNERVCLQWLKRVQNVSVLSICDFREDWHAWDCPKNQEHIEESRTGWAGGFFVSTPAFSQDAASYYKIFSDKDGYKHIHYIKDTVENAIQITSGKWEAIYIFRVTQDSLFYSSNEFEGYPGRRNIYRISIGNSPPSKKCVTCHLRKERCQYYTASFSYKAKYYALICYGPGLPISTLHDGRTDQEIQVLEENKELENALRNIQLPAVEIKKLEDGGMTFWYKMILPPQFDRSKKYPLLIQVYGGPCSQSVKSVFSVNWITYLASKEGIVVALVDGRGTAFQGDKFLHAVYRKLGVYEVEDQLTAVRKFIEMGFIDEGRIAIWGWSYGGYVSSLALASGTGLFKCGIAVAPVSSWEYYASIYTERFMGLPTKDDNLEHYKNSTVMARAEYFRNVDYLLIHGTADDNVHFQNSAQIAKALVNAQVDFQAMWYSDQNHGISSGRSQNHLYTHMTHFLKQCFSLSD
Excerpt: To determine if exemplary compounds of the invention can contribute to extend the half-life of hFGF21 in vivo, rats were orally dosed with vehicle or compound 13 (an exemplary compound) followed by sub-therapeutic dose of rhFGF21.
Male Sprague Dawley rats, approximately 7-8 weeks old (˜250 g), were obtained from the vivarium of Universidad Católica de Chile (Santiago, Chile). Animals were acclimated for a minimum period of 4 days upon arrival at the testing facility. At the day of study, two rats were anesthetized using sevoflurane and subjected to surgical implantation of catheters in carotid artery and jugular vein. Catheter plugs were fixed to the external ends of the catheters and kept patent using an anti-coagulant heparinized saline solution containing 25 U/mL Heparin (Fresenius Kabi, Laboratorio Sanderson) in 0.9% NaCl Apiroflex (Fresenius Kabi, Laboratorio Sanderson). After surgical recovery, rats were weighed and identified by marking the tail with numbers using a non-toxic permanent marker for designation of treatments described in Table 9.
Compound 13 (an exemplary compound) was formulated at 5 mg/ml in vehicle PEG200/dH2O (50/50, v/v) for oral administration and rhFGF21 was formulated in 0.9% NaCl Apiroflex at 100 μg/mL. […]

[1] = tested on: MC38 mouse colon cancer cell line; test: Tumor inhibition in vivo (MC38 tumor in C57/BL6 mice); conditions: 50 mg/kg orally twice daily from day 7 to day 22; no statistical significance observed
Description: Female C57/BL6 mice (approximately 8-9 weeks old; 20-21 gr) obtained from the vivarium of Fundación Ciencia & Vida (Santiago, Chile) were maintained in a temperature-controlled room with 12/12 hour light/dark schedule with food and water ad libitum. The mice were acclimated for a minimum period of 4 days upon arrival at the testing facility.
MC38 mouse colon cancer cell line was maintained as monolayer culture in DMEM-F12 (Cat. No.: SH30023.01, Hyclone) supplemented with 10% fetal bovine serum (Cat. No.: 16000, Gibco) and penicillin/streptomycin (Cat. No.: 15140122, Gibco) at 37° C. in an atmosphere with 5% CO2. The cells were routinely subcultured every 3 days to maintain growth at exponential phase. […] Cell pellet was resuspended in approximately 10× volume of cell culture medium and counted. Cell viability was determined to be >95% by trypan blue staining.
At the day of inoculation, female C57/B16 mice (n=15 total) were weighed and identified by marking the tail with numbers using a non-toxic permanent marker. […] Tumors were measured three times per week with digital calipers and tumors volumes, expressed in mm^3, were calculated with the following formula: Tumor volume (mm^3)=(a×b^2)/2 […]
Seven days after inoculation, mean tumor volume was about 100 mm^3. […] Body weight of the mice and tumor volume was recorded two or three times per week for a total of 22 days. […]

Structure (SMILES) | amount of rhFGF21 detected through time in the plasma (plasma FAP activity; 50 mg/kg PO pre-treatment, then rhFGF21 90 μg/Kg IV) | plasma FAP activity (plasma FAP activity; oral single dose of 50 mg/kg) | tumor volume vs vehicle [1]
N#C[C@@H]1CC(F)(F)CN1C(=O)CNC(=O)c1ccncc1-c1ccccc1 [Compound 13, (S)—N-(2-(2-cyano-4,4-difluoropyrrolidin-1-yl)-2-oxoethyl)-3-phenylisonicotinamide] | increased | potently suppressed | –
N#C[C@@H]1CC(F)(F)CN1C(=O)CNC(=O)c1ccncc1C1CC1 [Compound 24, (S)—N-(2-(2-cyano-4,4-difluoropyrrolidin-1-yl)-2-oxoethyl)-3-cyclopropylisonicotinamide] | – | – | smaller volume of tumor
